Activity calls are given as the source filed them.
Assays:
Mucolipin-3 = Mucolipin-3 (Homo sapiens, UniProt Q8TDD5); test: Dose response cell-based high-throughput screening assay for agonists of the transient receptor potential channel ML3 (TRPML3). [Related pubchem assays: 1526, 1424, 1448 ]; format: functional
Ion channel NompC = Ion channel NompC (Danio rerio, UniProt Q7T1G6); test: Fluorescence counterscreen assay for TRPML3 agonists: dose response cell-based high-throughput screening assay to identify agonists of the transient receptor potential channel N1 (TRPN1). [Related pubchem assays: 1526, 1424, 1448 ]; format: functional
[1] = target: T1, Alkaline phosphatase, tissue-nonspecific isozyme (Homo sapiens, UniProt P05186)
T1 sequence (P05186 whole entry): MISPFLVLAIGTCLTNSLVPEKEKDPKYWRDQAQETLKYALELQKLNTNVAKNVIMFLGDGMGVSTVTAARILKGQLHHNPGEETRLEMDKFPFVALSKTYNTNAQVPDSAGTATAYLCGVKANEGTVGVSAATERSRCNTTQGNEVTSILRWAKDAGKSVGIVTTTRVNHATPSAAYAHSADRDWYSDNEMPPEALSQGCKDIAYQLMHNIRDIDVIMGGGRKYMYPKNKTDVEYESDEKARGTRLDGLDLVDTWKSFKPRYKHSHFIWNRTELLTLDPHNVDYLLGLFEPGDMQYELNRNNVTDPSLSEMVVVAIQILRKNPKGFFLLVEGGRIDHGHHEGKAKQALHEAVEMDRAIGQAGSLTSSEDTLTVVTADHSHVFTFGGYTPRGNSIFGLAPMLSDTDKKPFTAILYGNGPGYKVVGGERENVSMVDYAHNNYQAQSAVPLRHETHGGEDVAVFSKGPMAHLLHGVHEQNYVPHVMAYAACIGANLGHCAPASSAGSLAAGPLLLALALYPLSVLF

[2] = NIH-3T3 fibroblast cytotoxicity, dose response, cytotoxicity control, cell-based, fluorescence, Alamar Blue, secondary assay (AID 2327); format: functional;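 further: NIH-3T3 mouse fibroblasts cultured with fluconazole at 8 µg/mL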
[3] = fluconazole-exposed Candida albicans growth modulators – fluorescence, retest, confirmation (AID 2467); format: functional, cell-based
NS3 = NS3 (Hepatitis C virus, UniProt A3EZJ3); test: PubChem AID 2173; set-up: species or system Hepacivirus hominis
[4] = target: 26S proteasome non-ATPase regulatory subunit 14 (Homo sapiens, UniProt O00487); test: inhibition of proteasome subunit RPN11 – biochemical, fluorescence polarization, uHTS hits, confirmation (AID 602368); format: functional
[5] = target: 72 kDa type IV collagenase (Homo sapiens, UniProt P08253); test: Dose Response validation of uHTS RPN11 inhibitor hits using a MMP-2 Fluorescence assay.; format: functional
Prothrombin = Prothrombin (Bos taurus, UniProt P00735); test: thrombin protease inhibitors – biochemical, fluorescence polarization, uHTS hits, dose response (AID 602369); format: functional
[6] = target: T2, Heat shock factor protein 1 (Mus musculus, UniProt P38532); test: decrease of HSF1-responsive luciferase luminescence – cell-based, NIH3T3, dose retest, confirmation (AID 2382); format: functional;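 further: NIH3T3 fibroblasts with HSF1-driven luciferase reporter stressed by proteasome inhibitor MG132; luminescence from HSF1-driven luciferase expression after 8 hours of MG132 stress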
T2 sequence (P38532 whole entry): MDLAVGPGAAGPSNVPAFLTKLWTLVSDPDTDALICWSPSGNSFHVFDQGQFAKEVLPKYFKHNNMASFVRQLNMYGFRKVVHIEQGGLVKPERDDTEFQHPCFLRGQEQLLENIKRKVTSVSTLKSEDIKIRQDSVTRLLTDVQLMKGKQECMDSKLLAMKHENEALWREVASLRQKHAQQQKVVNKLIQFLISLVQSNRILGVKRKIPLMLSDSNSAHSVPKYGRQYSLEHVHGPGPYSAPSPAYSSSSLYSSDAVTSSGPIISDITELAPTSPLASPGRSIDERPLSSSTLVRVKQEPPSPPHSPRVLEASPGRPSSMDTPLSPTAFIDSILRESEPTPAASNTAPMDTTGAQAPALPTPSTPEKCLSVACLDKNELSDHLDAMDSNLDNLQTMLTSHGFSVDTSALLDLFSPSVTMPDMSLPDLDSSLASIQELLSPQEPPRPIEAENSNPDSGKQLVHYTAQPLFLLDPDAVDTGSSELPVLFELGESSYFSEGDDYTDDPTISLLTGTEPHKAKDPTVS

Estrogen receptor = target: T3, Estrogen receptor (Homo sapiens, UniProt P03372); test: ERα coactivator recruitment enhancers – biochemical, TR-FRET, ERα LBD, dose response (AID 737)
T3 sequence (P03372 whole entry): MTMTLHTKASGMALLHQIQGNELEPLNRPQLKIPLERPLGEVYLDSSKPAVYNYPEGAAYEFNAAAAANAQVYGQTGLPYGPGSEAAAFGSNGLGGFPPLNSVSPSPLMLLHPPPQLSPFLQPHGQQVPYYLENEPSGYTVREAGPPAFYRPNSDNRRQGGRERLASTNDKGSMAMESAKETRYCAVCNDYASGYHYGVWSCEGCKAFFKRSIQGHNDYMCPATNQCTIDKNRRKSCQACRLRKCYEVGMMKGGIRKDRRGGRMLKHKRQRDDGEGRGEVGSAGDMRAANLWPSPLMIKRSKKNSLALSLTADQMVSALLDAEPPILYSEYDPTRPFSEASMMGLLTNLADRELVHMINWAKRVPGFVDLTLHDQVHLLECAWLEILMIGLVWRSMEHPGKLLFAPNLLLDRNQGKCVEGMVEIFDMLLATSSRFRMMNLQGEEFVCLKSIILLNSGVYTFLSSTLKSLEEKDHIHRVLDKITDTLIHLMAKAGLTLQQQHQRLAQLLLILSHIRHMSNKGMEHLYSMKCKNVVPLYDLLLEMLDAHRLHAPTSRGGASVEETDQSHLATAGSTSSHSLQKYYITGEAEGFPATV

Aspartyl aminopeptidase = Aspartyl aminopeptidase (Plasmodium falciparum 3D7, UniProt Q8I2J3)
Procathepsin L = Procathepsin L (Homo sapiens, UniProt P07711)
Aminopeptidase N = target: T4, Aminopeptidase N (Plasmodium falciparum FcB1/Columbia, UniProt O96935); test: malaria alanyl aminopeptidase activity blockers – biochemical, fluorogenic H-Leu-NHMec substrate, 1536-well (AID 1445); set-up: species or system Plasmodium falciparum 3D7, 3D7
T4 sequence (O96935 whole entry): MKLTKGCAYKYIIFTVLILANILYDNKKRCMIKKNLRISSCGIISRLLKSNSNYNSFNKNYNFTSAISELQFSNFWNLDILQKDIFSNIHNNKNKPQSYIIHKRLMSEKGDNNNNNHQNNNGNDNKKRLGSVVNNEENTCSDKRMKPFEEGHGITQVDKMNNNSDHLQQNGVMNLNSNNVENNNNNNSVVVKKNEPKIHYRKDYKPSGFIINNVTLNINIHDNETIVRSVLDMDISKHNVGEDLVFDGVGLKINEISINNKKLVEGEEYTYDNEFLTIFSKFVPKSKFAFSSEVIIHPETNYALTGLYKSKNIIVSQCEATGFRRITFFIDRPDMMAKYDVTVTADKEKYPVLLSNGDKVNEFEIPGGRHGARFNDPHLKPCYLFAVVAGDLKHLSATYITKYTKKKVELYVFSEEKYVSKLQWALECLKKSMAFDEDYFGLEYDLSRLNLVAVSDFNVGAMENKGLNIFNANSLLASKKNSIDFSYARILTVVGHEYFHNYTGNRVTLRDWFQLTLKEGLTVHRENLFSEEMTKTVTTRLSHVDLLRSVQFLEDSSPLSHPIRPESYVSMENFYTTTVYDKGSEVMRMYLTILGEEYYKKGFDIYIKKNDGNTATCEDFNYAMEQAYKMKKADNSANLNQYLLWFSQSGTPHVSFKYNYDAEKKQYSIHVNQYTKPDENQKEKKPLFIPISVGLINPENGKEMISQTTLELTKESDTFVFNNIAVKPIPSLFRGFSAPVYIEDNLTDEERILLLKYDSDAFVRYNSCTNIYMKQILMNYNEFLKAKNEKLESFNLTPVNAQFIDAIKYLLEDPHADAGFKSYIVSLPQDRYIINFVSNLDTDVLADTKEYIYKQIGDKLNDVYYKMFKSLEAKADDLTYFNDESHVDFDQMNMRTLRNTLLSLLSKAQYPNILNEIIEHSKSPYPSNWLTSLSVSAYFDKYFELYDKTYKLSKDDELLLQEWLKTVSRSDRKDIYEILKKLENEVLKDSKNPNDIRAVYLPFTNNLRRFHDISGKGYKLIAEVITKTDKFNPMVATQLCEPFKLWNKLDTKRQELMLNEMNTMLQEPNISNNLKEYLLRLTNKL

[7] = antiviral protection against BTV-induced cell death – arbovirus, BSR cells, confirmation (AID 1250); format: functional;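 further: protection from viral cytopathic effect measured as cell viability by ATP luminescence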
[8] = Counterscreen for IDE inhibitors: Luminescence-based cell-based high throughput dose response assay to identify compounds that are cytotoxic to HEK cells. [Related pubchem assays: 434962 (Primary screen (IDE inhibitors in singlicate)), 449730 (Counterscreen (Cytotoxicity in triplicate)), 435028 (Confirmation (IDE inhibitors in triplicate)) …; format: functional; conditions: HEK293
Insulin-degrading enzyme = target: T5, Insulin-degrading enzyme (Homo sapiens, UniProt P14735); test: Dose Response: Fluorescence polarization-based cell-based high throughput dose response assay for inhibitors of insulin-degrading enzyme (IDE). [Related pubchem assays: 434962 (Primary screen (IDE inhibitors in singlicate)), 449730 (Counterscreen (Cytotoxicity in triplicate)), 435028 (Confirmation (IDE inhibitors in triplicate)), 434984 (Summary …; format: functional
T5 sequence (P14735 whole entry): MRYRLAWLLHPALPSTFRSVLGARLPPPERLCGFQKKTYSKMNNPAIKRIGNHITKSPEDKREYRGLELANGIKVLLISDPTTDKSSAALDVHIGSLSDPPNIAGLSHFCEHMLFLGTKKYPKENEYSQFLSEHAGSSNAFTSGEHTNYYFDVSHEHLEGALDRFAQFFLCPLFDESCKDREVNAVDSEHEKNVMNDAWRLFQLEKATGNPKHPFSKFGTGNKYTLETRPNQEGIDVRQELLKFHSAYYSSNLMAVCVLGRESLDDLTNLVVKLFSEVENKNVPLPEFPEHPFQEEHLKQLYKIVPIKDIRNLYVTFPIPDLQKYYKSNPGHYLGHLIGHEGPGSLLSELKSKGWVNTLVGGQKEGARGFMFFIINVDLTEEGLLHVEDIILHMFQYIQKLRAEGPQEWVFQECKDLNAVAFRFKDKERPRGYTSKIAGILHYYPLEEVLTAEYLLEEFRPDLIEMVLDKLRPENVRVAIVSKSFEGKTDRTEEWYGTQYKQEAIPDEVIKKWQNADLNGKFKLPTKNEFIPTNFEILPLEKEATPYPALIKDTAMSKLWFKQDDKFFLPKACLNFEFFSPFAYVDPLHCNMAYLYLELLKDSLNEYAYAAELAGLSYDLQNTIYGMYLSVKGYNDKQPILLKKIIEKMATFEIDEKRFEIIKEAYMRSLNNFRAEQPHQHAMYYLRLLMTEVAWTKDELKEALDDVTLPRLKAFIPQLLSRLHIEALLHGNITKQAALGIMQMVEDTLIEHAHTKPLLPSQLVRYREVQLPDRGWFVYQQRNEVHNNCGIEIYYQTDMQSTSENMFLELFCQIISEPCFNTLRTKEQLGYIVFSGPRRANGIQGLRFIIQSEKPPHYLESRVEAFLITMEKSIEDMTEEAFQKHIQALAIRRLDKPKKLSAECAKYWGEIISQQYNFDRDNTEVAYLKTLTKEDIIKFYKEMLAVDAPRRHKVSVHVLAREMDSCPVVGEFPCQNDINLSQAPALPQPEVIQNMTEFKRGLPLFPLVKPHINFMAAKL

[9] = mitochondrial function rescue without frataxin homolog – Friedreich's ataxia, plus single-dose screen, dose response (AID 1465); format: functional;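 further: yeast depleted of Yfh1p frataxin homolog grown on glycerol needing respiration; WST-1 tetrazolium dye reduction as measure of cellular dehydrogenase metabolic activity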
[10] = Luminescence-based cell-based high throughput dose response assay to identify activators of the DAF-12 from the parasite S. stercoralis (ssDAF-12).; format: functional
[11] = target: T6, Oxysterols receptor LXR-beta (Homo sapiens, UniProt P55055); test: LXR agonists, Gal4 luciferase reporter, dose response, counter-screen for ssDAF-12 agonist project, cell-based, luminescence, HEK293, S. stercoralis campaign (AID 720737); format: functional; conditions: read-out: IC50 (the source's name)
T6 sequence (P55055 whole entry): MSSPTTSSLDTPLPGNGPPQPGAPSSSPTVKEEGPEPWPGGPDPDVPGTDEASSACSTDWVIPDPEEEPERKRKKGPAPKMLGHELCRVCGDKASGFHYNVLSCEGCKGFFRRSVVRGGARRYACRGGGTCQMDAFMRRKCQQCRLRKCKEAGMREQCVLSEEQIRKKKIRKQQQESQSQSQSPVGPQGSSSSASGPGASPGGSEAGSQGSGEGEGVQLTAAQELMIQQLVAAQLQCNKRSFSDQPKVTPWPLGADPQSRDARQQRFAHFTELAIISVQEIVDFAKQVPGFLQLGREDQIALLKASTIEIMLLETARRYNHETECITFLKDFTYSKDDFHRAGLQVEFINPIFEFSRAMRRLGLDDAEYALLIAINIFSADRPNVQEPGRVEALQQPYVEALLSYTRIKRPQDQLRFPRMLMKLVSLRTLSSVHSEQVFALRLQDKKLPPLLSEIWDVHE

72 kDa type IV collagenase, sequence (P08253 whole entry): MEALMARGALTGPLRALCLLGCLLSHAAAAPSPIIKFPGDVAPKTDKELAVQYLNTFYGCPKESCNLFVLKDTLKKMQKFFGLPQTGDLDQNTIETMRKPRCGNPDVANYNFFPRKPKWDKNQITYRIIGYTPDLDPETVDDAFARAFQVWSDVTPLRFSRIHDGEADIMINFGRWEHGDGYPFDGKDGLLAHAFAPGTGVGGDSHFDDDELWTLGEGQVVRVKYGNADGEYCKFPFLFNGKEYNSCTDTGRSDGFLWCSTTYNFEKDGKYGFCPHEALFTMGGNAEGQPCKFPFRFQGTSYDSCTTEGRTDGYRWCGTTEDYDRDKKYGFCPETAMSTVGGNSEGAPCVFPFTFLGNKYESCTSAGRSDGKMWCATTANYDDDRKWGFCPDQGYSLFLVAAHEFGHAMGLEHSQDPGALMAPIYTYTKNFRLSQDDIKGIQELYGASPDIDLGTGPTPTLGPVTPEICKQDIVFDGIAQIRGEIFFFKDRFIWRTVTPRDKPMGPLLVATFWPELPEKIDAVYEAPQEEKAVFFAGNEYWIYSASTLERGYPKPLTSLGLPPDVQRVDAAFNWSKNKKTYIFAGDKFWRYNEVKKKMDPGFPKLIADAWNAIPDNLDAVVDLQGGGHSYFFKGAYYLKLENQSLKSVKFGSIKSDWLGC
Procathepsin L, sequence (P07711 whole entry): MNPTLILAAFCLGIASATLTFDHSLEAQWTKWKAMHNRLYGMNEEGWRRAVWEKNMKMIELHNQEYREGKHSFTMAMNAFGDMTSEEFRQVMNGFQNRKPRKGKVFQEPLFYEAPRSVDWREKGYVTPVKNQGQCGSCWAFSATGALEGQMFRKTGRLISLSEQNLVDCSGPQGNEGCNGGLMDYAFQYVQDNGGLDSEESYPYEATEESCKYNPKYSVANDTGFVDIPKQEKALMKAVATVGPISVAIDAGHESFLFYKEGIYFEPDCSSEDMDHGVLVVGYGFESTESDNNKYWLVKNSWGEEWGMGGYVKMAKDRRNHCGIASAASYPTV
Mucolipin-3, sequence (Q8TDD5 whole entry): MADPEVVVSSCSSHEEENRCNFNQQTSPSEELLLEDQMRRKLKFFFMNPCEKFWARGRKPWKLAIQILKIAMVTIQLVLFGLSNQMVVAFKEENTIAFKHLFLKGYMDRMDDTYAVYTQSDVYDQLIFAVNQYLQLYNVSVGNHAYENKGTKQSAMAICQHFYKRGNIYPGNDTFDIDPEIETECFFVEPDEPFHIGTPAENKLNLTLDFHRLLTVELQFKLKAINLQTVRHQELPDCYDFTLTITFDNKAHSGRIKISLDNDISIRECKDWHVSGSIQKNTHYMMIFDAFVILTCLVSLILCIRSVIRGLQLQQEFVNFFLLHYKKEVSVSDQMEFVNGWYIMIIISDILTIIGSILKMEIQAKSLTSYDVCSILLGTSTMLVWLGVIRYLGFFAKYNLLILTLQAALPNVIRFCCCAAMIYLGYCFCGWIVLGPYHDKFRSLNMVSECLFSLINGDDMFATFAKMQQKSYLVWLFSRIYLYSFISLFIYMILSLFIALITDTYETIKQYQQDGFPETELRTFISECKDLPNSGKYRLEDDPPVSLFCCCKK
Aspartyl aminopeptidase, sequence (Q8I2J3 whole entry): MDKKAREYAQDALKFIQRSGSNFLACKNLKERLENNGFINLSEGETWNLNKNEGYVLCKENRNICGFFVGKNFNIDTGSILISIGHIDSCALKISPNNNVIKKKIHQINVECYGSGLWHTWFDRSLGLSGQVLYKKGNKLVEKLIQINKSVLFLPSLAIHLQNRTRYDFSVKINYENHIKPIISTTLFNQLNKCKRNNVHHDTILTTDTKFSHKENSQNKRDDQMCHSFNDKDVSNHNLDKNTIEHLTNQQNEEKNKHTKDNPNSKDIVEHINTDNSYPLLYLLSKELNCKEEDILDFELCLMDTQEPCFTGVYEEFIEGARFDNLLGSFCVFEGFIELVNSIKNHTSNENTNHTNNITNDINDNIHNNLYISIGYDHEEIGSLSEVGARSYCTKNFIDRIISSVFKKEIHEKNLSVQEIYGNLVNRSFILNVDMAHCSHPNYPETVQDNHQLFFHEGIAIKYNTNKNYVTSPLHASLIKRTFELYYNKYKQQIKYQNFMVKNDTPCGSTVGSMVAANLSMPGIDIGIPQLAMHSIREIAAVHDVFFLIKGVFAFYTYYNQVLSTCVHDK
NS3, sequence (A3EZJ3 whole entry): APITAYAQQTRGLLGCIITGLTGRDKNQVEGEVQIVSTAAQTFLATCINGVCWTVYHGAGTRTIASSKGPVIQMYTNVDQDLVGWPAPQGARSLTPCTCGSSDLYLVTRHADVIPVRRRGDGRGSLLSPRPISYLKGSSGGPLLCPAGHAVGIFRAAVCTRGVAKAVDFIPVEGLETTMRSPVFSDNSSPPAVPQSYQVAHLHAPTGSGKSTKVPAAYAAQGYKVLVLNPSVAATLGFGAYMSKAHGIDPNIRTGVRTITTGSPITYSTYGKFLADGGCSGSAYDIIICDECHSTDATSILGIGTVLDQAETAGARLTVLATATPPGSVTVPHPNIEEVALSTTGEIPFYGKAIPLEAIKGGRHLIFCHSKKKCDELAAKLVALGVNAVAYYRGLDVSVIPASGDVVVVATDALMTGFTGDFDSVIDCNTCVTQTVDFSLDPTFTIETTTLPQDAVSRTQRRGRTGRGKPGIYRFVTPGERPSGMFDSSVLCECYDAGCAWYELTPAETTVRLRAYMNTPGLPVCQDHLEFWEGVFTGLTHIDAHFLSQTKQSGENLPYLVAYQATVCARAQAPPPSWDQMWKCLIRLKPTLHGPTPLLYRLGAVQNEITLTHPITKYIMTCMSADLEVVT
26S proteasome non-ATPase regulatory subunit 14, sequence (O00487 whole entry): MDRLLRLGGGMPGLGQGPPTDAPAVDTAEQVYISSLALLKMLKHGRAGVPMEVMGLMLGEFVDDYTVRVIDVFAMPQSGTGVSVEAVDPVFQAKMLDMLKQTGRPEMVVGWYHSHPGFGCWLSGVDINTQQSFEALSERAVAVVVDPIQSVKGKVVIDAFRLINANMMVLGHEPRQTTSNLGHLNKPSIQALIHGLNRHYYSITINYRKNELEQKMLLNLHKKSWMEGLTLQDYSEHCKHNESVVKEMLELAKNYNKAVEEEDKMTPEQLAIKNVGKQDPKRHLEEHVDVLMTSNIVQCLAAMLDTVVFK
Ion channel NompC, sequence (Q7T1G6 whole entry): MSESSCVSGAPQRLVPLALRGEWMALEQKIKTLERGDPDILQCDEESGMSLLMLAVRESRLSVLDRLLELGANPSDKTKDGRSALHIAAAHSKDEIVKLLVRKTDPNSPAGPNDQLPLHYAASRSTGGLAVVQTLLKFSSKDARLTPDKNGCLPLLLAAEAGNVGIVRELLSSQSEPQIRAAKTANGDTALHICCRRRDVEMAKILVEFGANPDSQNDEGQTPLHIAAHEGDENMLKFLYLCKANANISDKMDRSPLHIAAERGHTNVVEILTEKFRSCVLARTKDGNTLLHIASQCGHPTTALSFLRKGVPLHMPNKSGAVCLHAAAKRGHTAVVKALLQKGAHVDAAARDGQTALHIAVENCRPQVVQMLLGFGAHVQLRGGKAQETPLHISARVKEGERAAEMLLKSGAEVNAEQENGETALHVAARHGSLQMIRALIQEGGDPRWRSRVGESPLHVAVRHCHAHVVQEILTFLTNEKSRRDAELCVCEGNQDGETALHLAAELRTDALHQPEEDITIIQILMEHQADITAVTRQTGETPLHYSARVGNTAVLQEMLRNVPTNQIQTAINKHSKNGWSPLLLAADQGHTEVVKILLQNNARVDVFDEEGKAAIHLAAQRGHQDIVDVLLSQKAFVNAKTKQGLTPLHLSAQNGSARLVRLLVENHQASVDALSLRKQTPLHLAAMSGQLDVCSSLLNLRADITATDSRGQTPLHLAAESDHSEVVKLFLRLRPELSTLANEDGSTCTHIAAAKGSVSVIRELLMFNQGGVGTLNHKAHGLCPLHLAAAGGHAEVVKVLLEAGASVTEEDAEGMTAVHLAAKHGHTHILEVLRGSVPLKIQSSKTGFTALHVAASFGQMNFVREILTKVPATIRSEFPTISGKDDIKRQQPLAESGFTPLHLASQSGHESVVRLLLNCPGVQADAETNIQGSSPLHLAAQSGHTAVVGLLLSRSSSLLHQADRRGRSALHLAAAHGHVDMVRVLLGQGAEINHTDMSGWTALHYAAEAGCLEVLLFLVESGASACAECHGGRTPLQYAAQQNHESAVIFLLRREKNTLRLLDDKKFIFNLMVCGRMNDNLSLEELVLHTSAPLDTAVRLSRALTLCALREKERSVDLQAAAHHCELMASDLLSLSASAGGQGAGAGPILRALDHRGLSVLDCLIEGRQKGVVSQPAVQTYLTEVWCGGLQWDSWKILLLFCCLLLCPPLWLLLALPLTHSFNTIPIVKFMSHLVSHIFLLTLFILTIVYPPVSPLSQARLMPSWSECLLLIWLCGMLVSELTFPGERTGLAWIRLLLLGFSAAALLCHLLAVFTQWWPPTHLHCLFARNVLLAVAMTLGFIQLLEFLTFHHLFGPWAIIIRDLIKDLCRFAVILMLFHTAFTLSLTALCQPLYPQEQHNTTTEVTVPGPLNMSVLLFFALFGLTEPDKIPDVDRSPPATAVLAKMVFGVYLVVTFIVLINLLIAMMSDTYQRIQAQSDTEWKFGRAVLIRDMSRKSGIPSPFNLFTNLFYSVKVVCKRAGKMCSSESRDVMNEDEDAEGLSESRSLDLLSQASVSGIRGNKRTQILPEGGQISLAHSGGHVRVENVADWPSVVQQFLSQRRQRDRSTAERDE

CCOC(=O)C(C)(C)N(Cc1cccc(C)c1)S(=O)(=O)c1cccc([N+](=O)[O-])c1
EC50 (Mucolipin-3): > 29.9 µM (not active) | EC50 (Ion channel NompC): > 29.9 µM (not active)

Cc1ccc(C(=O)NN=C(S)Nc2cccc3ccccc23)s1
EC50 [1]: 62.6 µM (not active)

O=C1NC(=S)N(CCC2=CCCCC2)C(=O)/C1=C/NNC(=O)c1ccccc1
EC50 [2]: > 150 µM (inconclusive) | EC50 [3]: > 38 µM (not active) | IC50 (NS3): 5.41 µM (active) | IC50 [4]: 43.9 µM (active) | IC50 [5]: > 100 µM (inactive) | IC50 (Prothrombin): 62.2 µM (active)

COc1nnc(-c2ccc(C(=O)N3C[C@@H]4C[C@H](C3)c3cccc(=O)n3C4)cc2)c2ccccc12
EC50 [6]: > 195 µM (not active) | EC50 (Estrogen receptor): 15 µM (active)

O=C(O)c1c[nH]nc1-n1cnnn1
IC50 (Aspartyl aminopeptidase): 1.27 µM (active) | IC50 (Procathepsin L): > 59.6 µM (not active)

Cc1ccc(C(=O)Nc2scc(-c3ccccc3)c2C(=O)O)o1
IC50 (Aminopeptidase N): 68.4 µM (active) | IC50 [7]: 34 µM (active)

N#C/C(=C\c1ccc(N2CCOCC2)o1)C(=O)NCC1CCCO1 (stereo not given)
IC50 [8]: > 55.7 µM (not active) | IC50 (Insulin-degrading enzyme): 25.3 µM (not active) | EC50 [9]: > 100 µM (active) | IC50 [10]: > 67.5 µM (inactive) | EC50 [11]: > 67.5 µM (inactive)
